{
  "source": "patent US4269971A",
  "about": "“Antibiotic TM-531” (Taisho Pharmaceutical Co., Ltd., priority 1978, dated 1981)",
  "key": {"[1]": {"test_system": "Helminthosporium sigmoldeum", "test": "Growth inhibitory activity on plant pathogenic microorganisms (colony diameter)", "type": "cell-based", "details": "100 mcg/ml, 28° C., 7 days, control medium 22.8 mm"}, "Botrytis cinerea": {"test_system": "Botrytis cinerea", "test": "Growth inhibitory activity on plant pathogenic microorganisms (colony diameter)", "type": "cell-based", "details": "100 mcg/ml, 28° C., 7 days, control medium 47.7 mm"}, "[2]": {"test_system": "gram-positive and plant pathogenic microorganisms", "test": "Physiological properties: growth inhibitory activity", "details": "in words"}, "protozoa": {"test_system": "protozoa", "test": "Physiological properties: activity on protozoa", "details": "protozoa as hog dysentery, coccidium, toxoplasma, trypanosome, malaria, etc.; in words"}, "[3]": {"test_system": "Staphylococcus aureus FDA 209 P", "test": "Antimicrobial activity (MIC), agar medium", "type": "cell-based", "details": "heart infusion agar", "method": "(§1) The antimicrobial activity of antibiotic TM-531 was determined in terms of the minimum inhibitory concentration (MIC) using a heart infusion agar medium for the determination of activity on bacteria and a potato dextrose agar medium for the determination of activity on fungi and yeast."}, "Proteus vulgaris HX 19": {"test_system": "Proteus vulgaris HX 19", "test": "Antimicrobial activity (MIC), agar medium", "type": "cell-based", "details": "heart infusion agar", "method": "as §1"}, "[4]": {"test_system": "Staphylococcus epidermidis TPR-25", "test": "Antimicrobial activity (MIC), agar medium", "type": "cell-based", "details": "heart infusion agar", "method": "as §1"}, "Trichophyton asteroides": {"test_system": "Trichophyton asteroides", "test": "Antimicrobial activity (MIC), agar medium", "type": "cell-based", "details": "potato dextrose agar", "method": "as §1"}, "[5]": {"test_system": "Streptococcus faecalis ATCC 8043", "test": "Antimicrobial activity (MIC), agar medium", "type": "cell-based", "details": "heart infusion agar", "method": "as §1"}, "[6]": {"test_system": "Aspergillus niger NHL 5088", "test": "Antimicrobial activity (MIC), agar medium", "type": "cell-based", "details": "potato dextrose agar", "method": "as §1"}, "[7]": {"test_system": "Escherichia coli NIHJ C-2", "test": "Antimicrobial activity (MIC), agar medium", "type": "cell-based", "details": "heart infusion agar", "method": "as §1"}, "[8]": {"test_system": "Staphylococcus aureus TRP-23", "test": "Antimicrobial activity (MIC), agar medium", "type": "cell-based", "details": "heart infusion agar", "method": "as §1"}, "[9]": {"test_system": "Staphylococcus aureus Smith", "test": "Antimicrobial activity (MIC), agar medium", "type": "cell-based", "details": "heart infusion agar", "method": "as §1"}, "Bacillus licheniformis": {"test_system": "Bacillus licheniformis", "test": "Antimicrobial activity (MIC), agar medium", "type": "cell-based", "details": "heart infusion agar", "method": "as §1"}, "Corynebacterium xerosis": {"test_system": "Corynebacterium xerosis", "test": "Antimicrobial activity (MIC), agar medium", "type": "cell-based", "details": "heart infusion agar", "method": "as §1"}, "[10]": {"test_system": "Pseudomonas aeruginosa IID 1052", "test": "Antimicrobial activity (MIC), agar medium", "type": "cell-based", "details": "heart infusion agar", "method": "as §1"}, "Candida albicans": {"test_system": "Candida albicans", "test": "Antimicrobial activity (MIC), agar medium", "type": "cell-based", "details": "potato dextrose agar", "method": "as §1"}, "Micrococcus luteus NIHJ": {"test_system": "Micrococcus luteus NIHJ", "test": "Antimicrobial activity (MIC), agar medium", "type": "cell-based", "details": "heart infusion agar", "method": "as §1"}, "[11]": {"test_system": "Bacillus subtilis ATCC 6633", "test": "Antimicrobial activity (MIC), agar medium", "type": "cell-based", "details": "heart infusion agar", "method": "as §1"}, "[12]": {"test_system": "Staphylococcus epidermidis TRP-13", "test": "Antimicrobial activity (MIC), agar medium", "type": "cell-based", "details": "heart infusion agar", "method": "as §1"}, "[13]": {"test_system": "Penicillium citrinum IAM 7003", "test": "Antimicrobial activity (MIC), agar medium", "type": "cell-based", "details": "potato dextrose agar", "method": "as §1"}, "Saccharomyces cerevisiae": {"test_system": "Saccharomyces cerevisiae", "test": "Antimicrobial activity (MIC), agar medium", "type": "cell-based", "details": "potato dextrose agar", "method": "as §1"}, "Toxoplasma tachyzoites": {"test_system": "Toxoplasma tachyzoites", "test": "Antitoxoplasma activity in infected mice macrophage culture", "type": "cell-based, Toxoplasma (in mice macrophage)", "details": "0.1 ppm, 37° C., 48 hours", "method": "(§2) A mice macrophage cultured on a TC-199 medium containing 20% of calf serum was infected with Toxoplasma tachyzoites (hereinafter referred to as \"T. tachyzoites\") and cultured at 37° C. for about 1 hour. Thereafter, the resulting culture was washed with a phosphate buffer having pH 7.2 to wash out non-infected T. tachyzoites and an ethanol solution of antibiotic TM-531 was added to the medium at an appropriate concentration of antibiotic TM-531. The medium containing the protozoa and antibiotic TM-531 was incubated at 37° C. for 48 hours and then stained with Trypan Blue, and the number of T. tachyzoites per 100 macrophages was counted to determine the antitoxoplasma activity of antibiotic TM-531 as compared with the number of T. tachyzoites per 100 macrophages in the control medium containing no antibiotic TM-531."}, "Eimeria tenella": {"test_system": "Eimeria tenella", "test": "Activity against Eimeria tenella in infected chicks", "type": "in vivo, Eimeria tenella in male chicks (white leghorn)", "details": "0.01% by weight in feed, 8 days after infection", "method": "Male chicks (white leghorn species) immediately after hatching were fed with a mixed feed for chicks containing no anti-coccidium agent until the test started. On the 8th day of feeding, health conditions of the test chicks were observed and the body weight was determined thereby dividing the test chicks into three groups, each group comprising 10 chicks and having an equal distribution of body weight. The test group was fed with a mixed feed for chicks containing 0.01% by weight of antibiotic TM-531 and the infected control group and the healthy group were fed with the same mixed feed but containing no antibiotic TM-531. On the 48th hour of feeding, each of chicks of the test group and the infected control group was infected with 9×10^4 mature oocysts of Eimeria tenella by oral administration. Eight days after infection, body weight increase (%), mortality (%) and O.P.G. [The number of oocysts (×10^4) present in 1 g of the content of caecum] were determined, and faeces conditions were observed and compared with those of the healthy group to determine the activity of antibiotic TM-531 against Eimeria tenella."}, "Piricularia sasakii": {"test_system": "Piricularia sasakii", "type": "cell-based", "details": "28° C., 7 days"}, "[14]": {"test_system": "gram-negative bacteria and yeasts", "test": "Physiological properties: activity on gram-negative bacteria and yeasts", "details": "in words"}, "Glomerella cingulata": {"test_system": "Glomerella cingulata", "test": "Growth inhibitory activity on plant pathogenic microorganisms (colony diameter)", "type": "cell-based", "details": "100 mcg/ml, 28° C., 7 days, control medium 27.3 mm"}, "Solubility": {"test": "Solubility", "type": "physicochemical"}, "macrophage": {"test_system": "macrophage", "test": "Toxic sign on macrophage by optical microscope", "type": "cell-based", "details": "mice macrophage culture with TM-531", "method": "as §2"}, "Gibberella fujikuroi": {"test_system": "Gibberella fujikuroi", "test": "Growth inhibitory activity on plant pathogenic microorganisms (colony diameter)", "type": "cell-based", "details": "100 mcg/ml, 28° C., 7 days, control medium 27.6 mm"}},
  "data": [
    {"smiles": "COC1CCC(OC2CC(C3(C)CCC4(CC(O)C(C)C(C(C)/C=C(\\C)C(=O)C(C)CC(C)C(=O)O)O4)O3)OC3(OC(C4OC(C)(O)C(C)CC4C)CC3C)C2C)OC1C", "note": "(centres unmarked) [TM-531]", "values": [
      {"measurement": "Colony Diameter, TM-531 Containing Medium", "setting": "[1]", "result": 15.4, "unit": "mm"},
      {"measurement": "Colony Diameter, TM-531 Containing Medium", "setting": "Botrytis cinerea", "result": 46.7, "unit": "mm"},
      {"measurement": "growth inhibitory activity", "setting": "[2]", "result": "exhibits growth inhibitory activity"},
      {"measurement": "effect on protozoa", "setting": "protozoa", "result": "effective on protozoa"},
      {"measurement": "Minimum Inhibitory Concentration", "setting": "[3]", "result": 1.56, "unit": "µg/mL"},
      {"measurement": "Minimum Inhibitory Concentration", "setting": "Proteus vulgaris HX 19", "result": "> 100", "unit": "µg/mL"},
      {"measurement": "Minimum Inhibitory Concentration", "setting": "[4]", "result": 3.13, "unit": "µg/mL"},
      {"measurement": "Minimum Inhibitory Concentration", "setting": "Trichophyton asteroides", "result": "> 100", "unit": "µg/mL"},
      {"measurement": "Minimum Inhibitory Concentration", "setting": "[5]", "result": 6.25, "unit": "µg/mL"},
      {"measurement": "Minimum Inhibitory Concentration", "setting": "[6]", "result": "> 100", "unit": "µg/mL"},
      {"measurement": "Minimum Inhibitory Concentration", "setting": "[7]", "result": "> 100", "unit": "µg/mL"},
      {"measurement": "Minimum Inhibitory Concentration", "setting": "[8]", "result": 3.13, "unit": "µg/mL"},
      {"measurement": "Minimum Inhibitory Concentration", "setting": "[9]", "result": 6.25, "unit": "µg/mL"},
      {"measurement": "Minimum Inhibitory Concentration", "setting": "Bacillus licheniformis", "result": 1.56, "unit": "µg/mL"},
      {"measurement": "Minimum Inhibitory Concentration", "setting": "Corynebacterium xerosis", "result": 1.56, "unit": "µg/mL"},
      {"measurement": "Minimum Inhibitory Concentration", "setting": "[10]", "result": "> 100", "unit": "µg/mL"},
      {"measurement": "Minimum Inhibitory Concentration", "setting": "Candida albicans", "result": "> 100", "unit": "µg/mL"},
      {"measurement": "Minimum Inhibitory Concentration", "setting": "Micrococcus luteus NIHJ", "result": 3.13, "unit": "µg/mL"},
      {"measurement": "Minimum Inhibitory Concentration", "setting": "[11]", "result": 1.56, "unit": "µg/mL"},
      {"measurement": "Minimum Inhibitory Concentration", "setting": "[12]", "result": 3.13, "unit": "µg/mL"},
      {"measurement": "Minimum Inhibitory Concentration", "setting": "[13]", "result": "> 100", "unit": "µg/mL"},
      {"measurement": "Minimum Inhibitory Concentration", "setting": "Saccharomyces cerevisiae", "result": "> 100", "unit": "µg/mL"},
      {"measurement": "Percent Macrophage infected with T. tachyzoites, 1 ~ 5/cell", "setting": "Toxoplasma tachyzoites; T. tachyzoites 1 ~ 5/cell, control medium 30.8", "result": 0, "unit": "%"},
      {"measurement": "Percent Macrophage infected with T. tachyzoites, ≥6/cell", "setting": "Toxoplasma tachyzoites; T. tachyzoites ≥6/cell, control medium 22.4", "result": 0, "unit": "%"},
      {"measurement": "O.P.G. (number of oocysts present in 1 g of the content of caecum)", "setting": "Eimeria tenella; infected control 17.3, healthy control 0", "result": "0 × 10^4"},
      {"measurement": "Mortality", "setting": "Eimeria tenella; infected control 60, healthy control 0", "result": 0, "unit": "%"},
      {"measurement": "Body Weight Increase", "setting": "Eimeria tenella; infected control 77.0, healthy control 100.0", "result": 105.1, "unit": "%"},
      {"measurement": "Faeces Conditions", "setting": "Eimeria tenella; infected control loose passage 100%, hemafecial 80%", "result": "Normal"},
      {"measurement": "Colony Diameter, TM-531 Containing Medium", "setting": "Piricularia sasakii", "result": 63.0, "unit": "mm"},
      {"measurement": "effect on gram-negative bacteria and yeasts", "setting": "[14]", "result": "ineffective on gram-negative bacteria and yeasts"},
      {"measurement": "Colony Diameter, TM-531 Containing Medium", "setting": "Glomerella cingulata", "result": 13.4, "unit": "mm"},
      {"measurement": "Solubility in organic solvents", "setting": "Solubility; methanol, ethanol, acetone, ethyl acetate, diethyl ether, benzene, chloroform, hexane and petroleum ether", "result": "soluble in methanol, ethanol, acetone, ethyl acetate, diethyl ether, benzene, chloroform, hexane and petroleum ether"},
      {"measurement": "Solubility in water", "setting": "Solubility; water", "result": "insoluble in water"},
      {"measurement": "toxic sign on macrophage", "setting": "macrophage", "result": "no toxic sign on macrophage"},
      {"measurement": "Colony Diameter, TM-531 Containing Medium", "setting": "Gibberella fujikuroi", "result": 20.2, "unit": "mm"}
    ]}
  ]
}
